# Experimental data from US7229621B2, “Method to enhance the immunogenicity of an antigen” (Torrey Pines Institute for Molecular Studies, priority 1998, dated 2007).
# Experiments:
# [1] = tested on: dendritic cells in draining lymph node; assay: Antigen-bearing dendritic cells in lymph node after aqueous antigen applied to skin with DBP and acetone; assay type: in vivo; conditions: aqueous solution applied to the skin with topical DBP and acetone (data not shown)
# From the text: Similarly, when an aqueous solution of a […] peptide or OVA protein antigen was applied to the skin along with topical application of the migration inducer, DBP and acetone, no detectable antigen-bearing (i.e., K^b:[…] positive) dendritic cells appeared in the draining lymph node (data not shown).
# [2] = tested on: dendritic cells in draining inguinal lymph nodes; assay: Antigen-bearing dendritic cells in lymph nodes after ultrasound application of soluble peptide followed by migration inducer; assay type: in vivo, C57BL/6 mice
# Method: FIG. 9 illustrates the effect of delivering a peptide antigen ([…]) into the skin via ultrasound, followed by topical application of dibutyl phthalate and acetone to maximize the induction of dendritic cell migration and maturation. […] (240 μg) in DMSO, or DMSO alone, was applied to the shaved abdominal skin of C57BL/6 mice and covered with a hydrogel, into which was inserted a 13 mm diameter ultrasound transducer. Ultrasound was applied at 20 kHz and 1.6 W/cm^2, in 1 second pulses every 2 seconds for 6 minutes, for a total ultrasound dose of 288 J/cm^2. Two hours later, a 50:50 v/v solution of acetone and dibutyl phthalate was applied topically to the same area. Two days later, the skin draining inguinal lymph nodes were removed and the cells analyzed by immunofluorescent flow cytometry.
# The antigen-bearing dendritic cells that had migrated to the draining lymph node are shown in the upper right quadrant of each dot plot. The dendritic cells in the lymph node were identified by their characteristic light scatter properties and exceptionally high surface expression of MHC class II (FL1), while the antigenic epitope was detected using the K^b:[…]-specific mAb 25-D1.16 (FL2), as described above.
# As stated previously, whether mature antigen-bearing dendritic cells will be encountered by and activate naive T cells in the lymph node is likely to depend not only on the number of antigen-bearing dendritic cells that enter the node, but also on the density of MHC:peptide complexes expressed on their membranes. To estimate the density of peptide:MHC complexes on the immigrant dendritic cells generated by this procedure, we compared the fluorescence intensity of various cell populations detected by the peptide:MHC-specific mAb, 25-D1.16, using identical staining conditions and flow cytometer settings. The results are shown in Table IV, providing the number of specific peptide:MHC complexes expressed on the plasma membrane of dendritic cells after various treatments in vitro or in vivo.
# [3] = 240 μg in DMSO, ultrasound 20 kHz, acetone/dibutyl phthalate 2 hours later, nodes two days later
# [4] = immigrant Langerhans cells from inguinal lymph nodes 48 hrs after 240 μg SIINFEKL by ultrasound
sequence,measurement,setting,value
"SIINFEKL [eight amino acid peptide OVA257-264 of chicken ovalbumin, tumor-associated peptide antigen presented by K^b]",antigen-bearing (K^b:SIINFEKL positive) dendritic cells in the draining lymph node,[1],no detectable
same,Dendritic Cells per Lymph Node,[2]; [3],"51,968"
same,K^b:SIINFEKL^+ DC per LymphNode,[2]; [3],"13,216"
same,Total Cells per Lymph Node,[2]; [3],5.6 × 10^6
same,Enhancement,[2]; K^b:SIINFEKL+ DC versus DMSO alone,5×
same,Median No. of Complexes/Cell,[2]; [4],633 complexes/cell
same,Median Specific Fl. Intensity,[2]; [4],32
same,cells reactive with mAb 25-D1.16 relative to absence of SIINFEKL,[2]; ultrasound-mediated topical exposure to SIINFEKL,five times
